Test results as given in ChEMBL document CHEMBL3351829, “Nostosins, Trypsin Inhibitors Isolated from the Terrestrial Cyanobacterium Nostoc sp. Strain FSN” (J Nat Prod, 2014).

Legend:
Trypsin (Sus scrofa) = Trypsin (Sus scrofa) (UniProt P00761); test: (§1) Inhibition of pig pancreas trypsin type IX-S using Boc-Gln-Ala-Arg-MCA substrate by 7-amino-4-methylcoumarin release based spectrofluorometry; conditions: TDE = time-dependent effect
Trypsin [1] = target: T1, Trypsin (Sus scrofa, UniProt P00761); test: as §1
Trypsin [2] = target: T1, Trypsin; test: Inhibition of pig pancreas trypsin type IX-S

T1 sequence (P00761 whole entry): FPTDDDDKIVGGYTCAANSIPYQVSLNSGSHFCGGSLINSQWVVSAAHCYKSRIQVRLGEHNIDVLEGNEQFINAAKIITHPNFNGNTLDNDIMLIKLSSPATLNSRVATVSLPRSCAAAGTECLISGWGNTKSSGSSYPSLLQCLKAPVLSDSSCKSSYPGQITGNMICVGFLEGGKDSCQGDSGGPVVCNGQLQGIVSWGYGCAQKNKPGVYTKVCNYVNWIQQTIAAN
Trypsin (Sus scrofa), sequence (P00761 whole entry): as above

SMILES | inhibition (Trypsin (Sus scrofa)) | IC50 (Trypsin [1]) [µM] | IC50 (Trypsin [2]) [µM]
CC[C@H](C)[C@H](NC(=O)C(O)CCc1ccc(O)cc1)C(=O)N[C@H](CO)CCCNC(=N)N (some centres not stated) | tde | 55 | 
C[C@H]1C[C@@H](C(=O)NC(C=O)CCCNC(=N)N)N(C(=O)[C@@H](CCc2ccc(O)cc2)NC(=O)[C@H](O)Cc2ccc(O)cc2)C1 (some centres not stated) [SPUMIGIN E] |  | < 0.1 | 
CC(=O)N[C@@H](CC(C)C)C(=O)N[C@@H](CC(C)C)C(=O)N[C@H](C=O)CCCNC(=N)N [LEUPEPTIN] |  | 0.5 | > 0.2
CC[C@H](C)[C@H](NC(=O)C(O)CCc1ccc(O)cc1)C(=O)N[C@H](C=O)CCCNC(=N)N (some centres not stated) | tde | 0.35 | 
